{"source": "patent US20250263667A1", "about": "“HUMAN FATTY-LIVER MODEL CELLS FOR USE IN SCREENING METHOD” (PhoenixBio Co., Ltd., priority 2021, published 2025)", "assay_type_in_all_cases": "cell-based, human", "key": {"PXB-cells [1]": {"tested_on": "PXB-cells", "experiment": "Analysis of lipoprotein in culture supernatant (LipoSEARCH gel filtration HPLC) of PXB-cells", "settings": "for content of Large-VLDL among the VLDL in the culture supernatant (neutral fat (triglyceride)): Large-VLDL alone changed", "experimental": "The following day of seeding, medium A was removed. Instead, 500 μL of medium B (DMSO (+)) or medium C (DMSO (−)) was added. The plate was gently placed in an incubator (37° C., 5% CO2) and the cells were cultured for 5 days. After completion of culture, an image of the cells was taken by a photomicrographic camera. Then, the culture supernatant was recovered and subjected to analysis for lipoprotein in the culture supernatant described below. Lipoproteins contained in the culture supernatants of PXB-cells, HepG2 cells and HuH7 cells were analyzed by using LipoSEARCH (registered trademark) method (Skylight Biotech, Inc.). After completion of the culture mentioned above, the medium used in the culture was removed and 500 μL of medium D for analysis was added. The culture plate was gently placed in an incubator (37° C., 5% CO2) and the cells were cultured for 2 days. Thereafter, the culture supernatant was recovered, lipoproteins contained in the culture supernatant (80 μL) were fractionated into 4 types of subgroups, CM, VLDL, LDL and HDL fractions, by gel filtration HPLC. Cholesterol and neutral fat (triglyceride) contained in individual fractions were quantified by online enzyme reactions. Concentration analysis was carried out in accordance with the computer program specifically developed by Skylight Biotech, Inc. Note that, in the enzymatic reaction, Diacolor Liquid TG-S (manufactured by Toyobo Co., Ltd.) was used. As standard sera for cholesterol and neutral fat (triglyceride) concentration in CM, VLDL, LDL and HDL, the sera manufactured by Kyowa Hakko Kirin Co., Ltd. were used. PXB-cells were diluted with medium A. The diluted cell suspension (500 μL) was gently poured to individual wells of a culture plate. The plate was allowed to stand still for about 20 minutes until the cells were slightly in contact with the bottom surface of the wells and gently placed to an incubator (37° C., 5% CO2) to culture the cells. The following day of seeding, medium A was removed and 500 μL of medium B (DMSO (+)) was added. The plate was gently placed in an incubator (37° C., 5% CO2) and the cells were cultured for 13 days. After completion of culture, the cells were used in the following test. A medium of PXB-cells prepared above was exchanged with medium D containing 0.75 mM oleic acid, and gently placed in an incubator (37° C., 5% CO2). PXB-cells were cultured for two days. PXB-cells were prepared in the same manner as in the method set forth in “Preparation of cells” in the above step (1-1) except that the period of culture in medium B (DMSO (+)) was set at 6 days and subjected to the following test. The mediums for the PXB-cells prepared above were exchanged with mediums D containing 1 nM or 5 nM lomitapide respectively and gently placed in an incubator (37° C., 5% CO2). PXB-cells were cultured for two days. PXB-cells were prepared in the same manner as in the method set forth in “Preparation of cells” in the above step (1-1) and subjected to the following test. The mediums of the PXB-cells prepared above were exchanged with mediums D containing 10 μM, 50 μM or 100 μM fenofibrate and gently placed in an incubator (37° C., 5% CO2). The PXB-cells were cultured for 2 days. After completion of the culture, cholesterol and neutral fat (triglyceride) in the culture supernatant and cells were measured in accordance with the method described in the above section “Analysis of lipoprotein in culture supernatant” and “Analysis of lipoprotein in cells”, respectively."}, "PXB-cells [2]": {"tested_on": "PXB-cells", "experiment": "Analysis of lipoprotein in cells (intracellular triglyceride and cholesterol, Cholestest) of PXB-cells", "settings": "2 days, data not shown", "experimental": "Triglyceride in cells was measured by use of Cholestest (registered trademark) TG (Sekisui Medical Co., Ltd.) in accordance with the instruction by the manufacturer. More specifically, the cells were washed with PBS, and then, completely dewatered (stored at -80° C. until measurement). To each well containing the cells, 200 μL of TG enzyme solution (1) was added. A reaction was allowed to proceed while keeping the cells warm at 37° C. for 10 minutes (free glycerol was removed) Then, the cells were torn away by pipetting, transferred to a centrifuge tube and centrifuged at 10,000 rpm×10 minutes. Then, the supernatant (7.5 μL) was transferred to a 96-well microplate. To this, 68 μL of TG enzyme solution (1) was added and the microplate was kept warm at 37° C. for 10 minutes to remove completely free glycerol. Then, 25 μL of TG enzyme solution (2) was added and kept the plate warm at 37° C. for 10 minutes. The resultant reaction product was subjected to measurement of absorbance at 550 nm. The content of triglyceride was calculated based on HDL-[…] as the reference (triglyceride concentration of HDL-[…] was 52.26 mg/dL). Intracellular cholesterol was measured by use of Cholestest (registered trademark) CHO (Sekisui Medical Co., Ltd.) in accordance with the instruction by the manufacturer. […] The resultant reaction product was subjected to measurement of absorbance at 550 nm. The content of cholesterol was calculated based on HDL-[…] as the standard ([…] of HDL-[…] was 152.67 mg/dL). […] After completion of culture, the total cholesterol and total neutral fat (triglyceride) in culture supernatant and in cells were measured in accordance with the methods described in the sections “Analysis of lipoprotein in culture supernatant” and “Analysis of lipoprotein in cells”. […] After completion of the culture, cholesterol and neutral fat (triglyceride) in the culture supernatant and cells were measured in accordance with the method described in the above sections “analysis of lipoprotein in culture supernatant” and “analysis of lipoprotein in cells”, respectively. […]"}, "PXB-cells [3]": {"tested_on": "PXB-cells", "experiment": "Observation of fat droplets in PXB-cells by photomicrograph", "settings": "2% DMSO in medium, 5 days culture", "experimental": "The following day of seeding, medium A was removed. Instead, 500 μL of medium B (DMSO (+)) or medium C (DMSO (−)) was added. The plate was gently placed in an incubator (37° C., 5% CO2) and the cells were cultured for 5 days. After completion of culture, an image of the cells was taken by a photomicrographic camera. Then, the culture supernatant was recovered and subjected to analysis for lipoprotein in the culture supernatant described below."}}}
{"compound": "CCCCCCCC/C=C\\CCCCCCCC(=O)O", "note": "[oleic acid]", "values": [{"measurement": "content of Large-VLDL among the VLDL in the culture supernatant (neutral fat (triglyceride))", "setting": "PXB-cells [1]; 0.75 mM oleic acid in medium D, 2 days", "value": "significantly increased"}, {"measurement": "VLDL content in the culture supernatant (neutral fat (triglyceride))", "setting": "PXB-cells [1]; 0.75 mM oleic acid in medium D, 2 days, PXB-cells pre-cultured 13 days in medium B (DMSO (+)), vs medium D control", "value": "significantly increased"}, {"measurement": "content of cholesterol in the culture supernatant", "setting": "PXB-cells [1]; 0.75 mM oleic acid, 2 days, data not shown", "value": "change similarly to the content of neutral fat (triglyceride)"}, {"measurement": "content of cholesterol in the cells", "setting": "PXB-cells [2]; 0.75 mM oleic acid", "value": "change similarly to the content of neutral fat (triglyceride)"}, {"measurement": "content of neutral fat (triglyceride) in the cells", "setting": "PXB-cells [2]; 0.75 mM oleic acid", "value": "significantly increased"}]}
{"compound": "O=C(NC1CCN(CCCCC2(C(=O)NCC(F)(F)F)c3ccccc3-c3ccccc32)CC1)c1ccccc1-c1ccc(C(F)(F)F)cc1", "note": "[lomitapide]", "values": [{"measurement": "VLDL content of the culture supernatant (neutral fat (triglyceride))", "setting": "PXB-cells [1]; 5 nM lomitapide in medium D, 2 days, PXB-cells pre-cultured 6 days in medium B (DMSO (+)), vs ethanol control", "value": "significantly decreases"}, {"measurement": "content of Large-VLDL among the VLDL in the culture supernatant (neutral fat (triglyceride))", "setting": "PXB-cells [1]; lomitapide in medium D, 2 days", "value": "significantly decreased"}, {"measurement": "content of neutral fat (triglyceride) in the cells", "setting": "PXB-cells [2]; lomitapide (1 nM or 5 nM)", "value": "no change"}]}
{"compound": "C[S+](C)[O-]", "note": "[DMSO, dimethyl sulfoxide]", "values": [{"measurement": "secretion of total neutral fat (triglyceride) in lipoproteins, medium B (DMSO (+)) relative to medium C (DMSO (−))", "setting": "PXB-cells [1]; 2% DMSO in medium, 5 days culture, culture supernatant", "value": "about 9 times"}, {"measurement": "number of fat droplets in PXB-cells, medium B (DMSO (+)) compared to medium C (DMSO (−))", "setting": "PXB-cells [3]", "value": "about double"}]}
